{"source": "patent US20170340598A1", "about": "“Method of Reducing Uric Acid with Fucoxanthin-Containing Composition” (TCI Co., Ltd., priority 2016, published 2017)", "key": {"[1]": {"test_system": "NOS2 (inducible nitric oxide synthase) gene", "assay": "NOS2 gene expression in MSU-induced ADTC5 cells (qPCR)", "assay_type": "cell-based, mouse", "conditions": "extract 2 mg/ml, fucoxanthin 1 ppm, normalized to β-actin", "protocol": "Next, the cells were treated with monosodium urate (MSU) (0.125 mg/ml, in medium) to induce uric acid crystallization. Cells were divided into three groups: Group 1 was treated with Ascophyllum nodosum extract extracted for 120 minutes (2 mg/ml, in medium); group 2 was treated with fucoxanthin (1 ppm, in medium); group 3 was untreated (the control group). […] Next, reverse transcription was performed using a SuperScript™ reverse transcription kit (Invitrogen). The NOS2 (inducible nitric oxide synthase) gene was quantified using the ABI StepOnePlus™ System (Applied Biosystems), and β-actin was used as a reference gene for normalizing each sample. It is known that accumulation of uric acid crystals in the joints causes inflammation in joint cavities, which leads to the increase of NOS2 gene expression in chondrocytes. Therefore, NOS2 gene expression levels were used to evaluate the degree of inflammation of cells caused by uric acid crystallization. […] Statistical analysis was performed by Student's t-test (Microsoft Excel software)."}, "xanthine oxidase": {"target": "xanthine oxidase (Homo sapiens, UniProt P47989)", "sequence (P47989 whole entry, species assumed)": "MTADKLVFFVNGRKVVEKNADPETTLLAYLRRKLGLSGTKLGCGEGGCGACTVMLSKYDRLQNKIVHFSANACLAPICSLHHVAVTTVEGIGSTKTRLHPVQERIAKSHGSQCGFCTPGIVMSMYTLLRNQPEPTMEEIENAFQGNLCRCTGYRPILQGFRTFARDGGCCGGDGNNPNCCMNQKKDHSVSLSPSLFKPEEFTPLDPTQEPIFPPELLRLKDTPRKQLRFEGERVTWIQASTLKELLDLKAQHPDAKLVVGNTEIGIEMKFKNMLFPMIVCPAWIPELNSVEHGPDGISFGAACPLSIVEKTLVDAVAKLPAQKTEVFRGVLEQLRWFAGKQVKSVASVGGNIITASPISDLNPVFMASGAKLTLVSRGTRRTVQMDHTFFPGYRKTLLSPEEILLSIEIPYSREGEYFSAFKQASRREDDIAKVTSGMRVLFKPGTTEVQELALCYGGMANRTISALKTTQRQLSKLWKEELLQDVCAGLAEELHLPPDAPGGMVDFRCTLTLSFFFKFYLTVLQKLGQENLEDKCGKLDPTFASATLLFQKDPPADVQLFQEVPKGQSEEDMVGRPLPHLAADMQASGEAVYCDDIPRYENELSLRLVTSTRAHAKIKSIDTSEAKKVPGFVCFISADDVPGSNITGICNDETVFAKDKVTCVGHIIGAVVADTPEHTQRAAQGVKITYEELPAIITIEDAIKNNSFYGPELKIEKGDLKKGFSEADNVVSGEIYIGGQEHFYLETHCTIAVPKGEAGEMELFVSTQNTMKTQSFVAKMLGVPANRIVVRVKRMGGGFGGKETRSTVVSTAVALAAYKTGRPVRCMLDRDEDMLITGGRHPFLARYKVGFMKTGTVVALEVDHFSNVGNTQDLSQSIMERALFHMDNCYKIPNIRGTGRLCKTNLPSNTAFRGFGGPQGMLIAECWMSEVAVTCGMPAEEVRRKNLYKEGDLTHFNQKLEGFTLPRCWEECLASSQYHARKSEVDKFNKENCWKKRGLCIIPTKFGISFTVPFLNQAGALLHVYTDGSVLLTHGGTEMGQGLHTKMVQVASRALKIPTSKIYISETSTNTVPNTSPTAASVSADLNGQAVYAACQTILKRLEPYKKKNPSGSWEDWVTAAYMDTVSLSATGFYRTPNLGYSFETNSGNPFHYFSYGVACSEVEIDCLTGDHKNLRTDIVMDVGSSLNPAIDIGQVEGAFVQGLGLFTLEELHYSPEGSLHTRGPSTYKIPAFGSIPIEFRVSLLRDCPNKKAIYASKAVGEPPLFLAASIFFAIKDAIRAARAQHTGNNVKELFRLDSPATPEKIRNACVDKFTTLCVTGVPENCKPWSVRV", "assay": "Evaluation of the inhibition of xanthine oxidase activity", "assay_type": "biochemical", "conditions": "extract extracted for 120 minutes; fucoxanthin at the same concentration as the extract", "protocol": "50 μL of the test sample, 35 μL of phosphate buffer (70 mM, pH 7.5) and 30 μL of xanthine oxidase (0.02 units/mL) were mixed and shaken, and allowed to stand at room temperature for 15 minutes. Then, 60 μL of xanthine (150 μM) was added and allowed to react at room temperature for 30 minutes; the reaction was then stopped by the addition of 100 μL of the HCl (1N), followed by measuring absorbance at 290 nm. The inhibitory effect of the test sample against xanthine oxidase activity was evaluated and compared with the control group."}}, "data": [{"molecule": "CC(=O)O[C@H]1CC(C)(C)C(=C=C/C(C)=C/C=C/C(C)=C/C=C/C=C(C)/C=C/C=C(\\C)C(=O)C[C@@]23O[C@]2(C)C[C@@H](O)CC3(C)C)[C@](C)(O)C1", "note": "[fucoxanthin]", "values": [{"measurement": "NOS2 gene expression level (MSU-induced group expressed as 1)", "setting": "[1]; ADTC5 cells co-treated with MSU 0.125 mg/ml for 24 hours", "value": 0.24}, {"measurement": "NOS2 gene expression level (MSU-induced group expressed as 1)", "setting": "[1]; ADTC5 cells co-treated with MSU 0.125 mg/ml for 48 hours", "value": 0.12}, {"measurement": "inhibition rate against xanthine oxidase", "setting": "xanthine oxidase", "value": 44, "unit": "%"}]}]}
